The values below come from patent US10358439B2, “DNA binding agents with a minor groove binding tail” (Board of Regents, The University of Texas System, priority 2015, dated 2019).

The subject of one data set is U87. The experiment in a line: in vitro antitumor activity, U87. The note with it: U87 (U87-MG brain tumor) cells. The format is cell-based.
The next data set relates to Colo357-FG. The experiment in a line: in vitro antitumor activity, Colo357-FG. The format is cell-based. The note with it: Colo357-FG cells.
The next data set has as its system D54. Kind of data set: in vitro antitumor activity, D54. Format: cell-based. The conditions noted are these: D54 cells.
The test system of the next data set is H441. The experiment in a line: in vitro antitumor activity, H441. The note with it: H441 cells. The format is cell-based.
Data set [1] is described as follows: in vitro IC50, cells not stated. The conditions noted are these: cell lines not stated. Format: cell-based.
Data set [2] is described as follows: 5-mice pilot single-dose pharmacokinetic study, plasma and brain. The format is in vivo. The conditions noted are these: mouse, iv, 5 mg/kg, one hour following a single ~5 mg/kg intravenous dose. The protocol:
WP1244 has a relatively high molecular weight (MW) (981.3) having a polyamide moiety attached to the amino sugar. A previous 5-mice pilot study performed with WP1244 confirmed the presence of WP1244 in murine brain tissue, and mean normalized concentrations in the plasma and brain were 283+/−128 ng/mL (range 159-487 ng/mL) and 122+/−67.6 ng/g (range 43-203 ng/g), respectively, one hour following a single ˜5 mg/kg intravenous dose. This pilot single-dose pharmacokinetic study was followed by a complete single-dose pharmacokinetic/biodistribution study which was designed to better elucidate the plasma time-course and tissue biodistribution, particularly in brain tissue, of WP1244. This study involve the use of 55 animals and a dose of 10 mg/kg. The experiment was conducted over a 24 h interval and the methods and results are outlined below.

Data set [3] in a line: Mouse Plasma PK and Brain Distribution Study following Single IV Dose. The format is in vivo, male CD1 mice. Details: Mean peak plasma concentration / area-under-the-curve: unit not given here. The note with it: mice, 10 mg/kg IV; for Kp / Vd: iv, 10 mg/kg. The protocol:
(§1) Mouse Plasma PK and Brain Distribution Study following Single IV Dose—WP1244 was administered intravenously by rapid IV push to 55 male CD1 mice (Charles River Lab, Wilmington, Mass.) at a dose of 10 mg/kg. Each mouse (mean weight 22.0 g, range 20.7-26.6 g) was given a volume of 0.1 mL of a 2.2 mg/mL WP1244 solution formulated in DMSO:water (50:50, v/v). Five animals were assigned to one of 11 groups segregated by time, spanning the length of the 24-hour study period. One cohort of animals was sacrificed at each of the following time points and mouse plasma and tissues of interest, were harvested for analysis. The time points were as follows: 5, 15, 30, 45 minutes, 1, 2, 4, 6, 8, 12, and 24 hours following administration by intravenous bolus. Samples (plasma and tissues) were frozen and stored at −80° C. until subsequent analysis by LC/MS/MS.
Sample preparation and drug isolation (extraction) from plasma utilized the same fundamental approach used in pharmacokinetic and biodistribution studies of other anthracyclines previously conducted by the inventors. Briefly, WP1244 was extracted from a volume (0.1 mL) of mouse plasma using a solid-phase extraction method. Liquid-liquid extraction by a chloroform: 2-propanol (80:20, v/v) mixture was utilized to isolate the analyte from mouse brain tissue. An 8-point plasma extracted calibration curve was created to span a dynamic concentration range of WP1244 of 1-1000 ng/mL (1, 2.5, 10, 25, 50, 100, 500, and 1000 ng/mL) for the quantitative measurement of WP1244 extracted from mouse plasma, while a brain tissue derived calibration curve was utilized for determination of brain tissue concentrations of drug over a range of 10-1000 ng/g tissue. Samples exceeding the dynamic range of the calibration curve were re-analyzed following dilution in extraction buffers.
Quantitative sample analysis was performed by chromatographic separation and identification/quantification using mass spectrometry (LC/MS/MS); the specific instrumentation used was an Agilent HP1100 Series liquid chromatograph in tandem with a Micromass Quattro Micro (Micro2) mass spectrometer. A Phenomenex® Luna C5, 4.6×50 mm, 3.5 μm) analytical column was used for chromatographic separation and peak resolution. As mentioned before, sample analysis utilized the same fundamental validated methods developed previously for the quantitative analysis of other anthracyclines studied by the inventors.

Data set [4] in a line: acute clinically observable toxicity after IV bolus. Format: in vivo. The note with it: mice, 10 mg/kg intravenous bolus, up to 24 hours following dosing. The protocol: as §1

Where two headings read alike, the source gives them in different places. Bounds are passed on as bounds.

Turning to `COc1cccc2c1C(=O)c1c(O)c3c(c(O)c1C2=O)C[C@](O)(C(C)=O)C[C@H]3OC1CC(NCc2ccc(NC(=O)c3cc(NC(=O)c4cc(NC(=O)c5cccn5C)cn4C)cn3C)cc2)C(O)C(C)O1` (stereo in doubt) [WP1243], the IC50 in the data set on U87 (Homo sapiens, U-87 MG) amounted to 8.3 nM; with Colo357-FG (COLO 357/FG) it was 76.2 nM.

Turning to `COc1cccc2c1C(=O)c1c(O)c3c(c(O)c1C2=O)C[C@](O)(C(C)=O)C[C@H]3OC1CC(NCc2ccc(NC(=O)c3cc(NC(=O)c4cc(NC(=O)c5cc(NC=O)cn5C)cn4C)cn3C)cc2)C(O)C(C)O1` (stereo in doubt) [WP1249], the IC50 is 7.7 nM with U87 (Homo sapiens, U-87 MG) and 51.2 nM with Colo357-FG (COLO 357/FG).

On to `COc1cccc2c1C(=O)c1c(O)c3c(c(O)c1C2=O)C[C@](O)(C(C)=O)C[C@H]3OC1CC(NCc2ccc(NC(=O)c3cc(NC(=O)c4cc(NC(=O)c5cc([N+](=O)[O-])cn5C)cn4C)cn3C)cc2)C(O)C(C)O1` (stereo in doubt) [WP1276], for which the IC50 in the data set with U87 (Homo sapiens, U-87 MG) was 27.8 nM; in the data set on Colo357-FG (COLO 357/FG), 443 nM.

Consider `COc1cccc2c1C(=O)c1c(O)c3c(c(O)c1C2=O)C[C@@](O)(C(C)=O)C[C@H]3OC1CC(NC(=O)c2cc(NC(=O)c3cc(NC(=O)c4cccn4C)cn3C)cn2C)C(O)C(C)O1` (stereo in doubt) [WP1277], for which the IC50 turned out to be 105 nM in the data set on U87 (Homo sapiens, U-87 MG) and 4240 nM in the data set on Colo357-FG (COLO 357/FG).

On to `COc1cccc2c1C(=O)c1c(O)c3c(c(O)c1C2=O)C[C@@](O)(C(C)=O)C[C@@H]3O[C@H]1C[C@H](N)[C@H](O)[C@H](C)O1` [DNR, reference compound], for which the IC50 amounted to 143 nM in the data set on U87, 46.4 nM with Colo357-FG, 231 nM in the data set with D54 and 15.9 nM in the data set with H441.

With `COc1cccc2c1C(=O)c1c(O)c3c(c(O)c1C2=O)C[C@](O)(C(C)=O)C[C@H]3OC1CC(NCc2ccc(NC(=O)c3cc(NC(=O)c4cc(NC(=O)c5ccccn5)cn4C)cn3C)cc2)C(O)C(C)O1` (stereo partly shown) [WP1244], the IC50 in the data set with U87 (Homo sapiens, U-87 MG) was 0.2 nM; in the data set on Colo357-FG (COLO 357/FG), 3.1 nM; in the data set on D54 (Homo sapiens) it was 1.08 nM; in the data set with H441 (Homo sapiens, NCI-H441), 0.91 nM. Besides, the “in vitro IC50 values” in data set [1] is listed as “subnanomolar range”. Further, the concentration at 1 h in data set [2] (brain, read-out: mean normalized concentration in brain) is 122 ng/g; in data set [2] (brain, read-out: range of normalized concentration in brain), 43 to 203 ng/g; in data set [2] (plasma, read-out: mean normalized concentration in plasma) it was 283 ng/mL; in data set [2] (plasma, read-out: range of normalized concentration in plasma), 159 to 487 ng/mL. Besides, the Kp in data set [3] (male, CD1, mouse, brain, 0 to 8 hour interval, read-out: fold higher concentration in brain tissue than plasma) is 3 to 4; in data set [3] (male, CD1, mouse, brain, over the measured interval (except 5 min timepoint), read-out: brain tissue to plasma concentration ratio), greater than 1. Besides, the concentration at 24 h is greater than 100 ng/g in data set [3] (male, CD1, mouse, brain, at 24 hours, read-out: nadir brain tissue concentration) and 21.5 ng/mL in data set [3] (male, CD1, mouse, plasma, 24 hours after IV bolus injection, read-out: mean nadir plasma concentration). Also, the Vd came to 0.0097 L/kg in data set [3] (male, CD1, mouse, plasma, 2-compartment model, read-out: volume of distribution Vc); 0.326 L/kg in data set [3] (male, CD1, mouse, plasma, 2-compartment model, read-out: volume of distribution Vp); 0.336 L/kg in data set [3] (male, CD1, mouse, plasma, 2-compartment model, read-out: volume of distribution Vss). Further, in data set [3] (male, CD1, mouse, plasma, 2-compartment model, read-out: Drug clearance (converted)), the clearance was 0.683 mL/min/kg. Moreover, in data set [3] (at 15 minutes post dose), the “mean peak concentration in brain tissue” value is listed as 915 ng/g tissue. Further, the “Mean peak plasma concentration” value in data set [3] (five minutes after drug administration) is reported as 3.7. The same compound returned an area-under-the-curve in data set [3] (plasma) of 250. Moreover, in data set [3] (post dose), the “time of peak concentration in brain tissue” value is 15 min. The “acute clinically observable toxicity” value in data set [4] is given as “no acute clinically observable toxicity”.

As a reminder, the IC50 is the concentration that gives 50% inhibition. For orientation: clearance means the volume of plasma or blood freed of the substance per unit of time.
